Values belong to the compound of their own block, whether it stands above or below them.
Experiments:
[1] = Accelerated stability, 4 hrs at 80° C., total impurities; conditions: after 4 hours at 80° C.
Procedure: As part of the analysis of impurity growth, the impact on impurity level of various excipients useful for tablet preparation was examined by blending the DPI with various excipients and heating for 4 hours at 80° C.

[2] = Particle size analysis (Malvern Mastersizer 3000), Example 4; type: physicochemical; conditions: volume statistics, in 0.1% PVP
Procedure: This cycle was continued until the total sonication time reached one minute. […] The sample was then allowed to stir for 5 minutes prior to taking measurements. Data from the final measurements are presented in Table 1 and depicted graphically in FIG. 3. For comparison, the particle size distribution of unmilled abiraterone acetate (raw drug substance) was also determined. […] The sample was then allowed to stir for 5 minutes prior to taking measurements. The data from these measurements are presented in Table 1 and depicted graphically in FIG. 3. […] No fine particle abiraterone acetate was measured in the unmilled drug sample. [table]

[3] = Comparative capsule dissolution, 10 mmol phosphate buffer pH 6 with 0.1% SDS, Example 2; type: physicochemical; conditions: pH 6 phosphate buffer, 37° C.
Procedure: Also, 250 mg of unmilled abiraterone acetate was hand filled into similar capsules. Dissolution profiles were measured in triplicate using a Varian VK7025 dissolution apparatus fitted with (6) 1000 mL vessels, with detection performed in a Varian UV-Vis Spectrophotometer at 270 nm. Each vessel contained 900 mL dissolution media consisting of 10 mmol phosphate buffer at pH 6 with 0.1% SDS added. Experiments were conducted at 37° C. The hard gelatin capsules were fitted inside spiral sinkers before commencing the dissolution experiments.

[4] = Particle size distribution by light scattering (Malvern Mastersizer 2000), Example 1; type: physicochemical; conditions: volume statistics
From the text: Abiraterone acetate drug substance was obtained from Hangzhao Dayangchem Co., Ltd.; Hangzhao City, P.R. China.

- degradation [1]: essentially no degradation
Structure (SMILES): CC(=O)O[C@H]1CC[C@@]2(C)C(=CC[C@@H]3[C@@H]2CC[C@]2(C)C(c4cccnc4)=CC[C@@H]32)C1 [API prior to size reduction, Abiraterone acetate]

- D4,3 [2]: 28.1 μm
- D10 [2]: 8.18 μm
- D50 [2]: 21.8 μm
- D90 [2]: 47.3 μm
Structure (SMILES): CC(=O)O[C@H]1CC[C@@]2(C)C(=CC[C@@H]3[C@@H]2CC[C@]2(C)C(c4cccnc4)=CC[C@@H]32)C1 [Unmilled, Abiraterone acetate]

- % dissolved after one hour [3]: approximately 10%
- D10 [4]: 16 μm
- D50 [4]: 37 μm
- D90 [4]: 70 μm
- average particle size [4]: approximately 40 μm
Structure (SMILES): CC(=O)O[C@H]1CC[C@@]2(C)C(=CC[C@@H]3[C@@H]2CC[C@]2(C)C(c4cccnc4)=CC[C@@H]32)C1 [unmilled abiraterone acetate, Abiraterone acetate]
